Data published in PubChem BioAssay (NCI).
Several values for one entry are separate records, joined by “and”; a condition that tells them apart may be missing. Identical values can stand only once.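 Protocol summary: plate cells (96-well), add compound at 5 concentrations, incubate 48 h, interpolate endpoints linearly. GI50: concentration for 50% inhibition of growth. The concentration for full growth arrest is given as TGI.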

Key:
Experiment in all cases: growth of human tumour cells (NCI), 48 h
HOP-62 NSCLC = tested on: HOP-62 NSCLC
HOP-92 NSCLC = tested on: HOP-92 NSCLC
MCF7 breast = tested on: MCF7 breast
MDA-MB-231 breast = tested on: MDA-MB-231 breast
NCI-H226 lung = tested on: NCI-H226 lung
NCI-H522 lung = tested on: NCI-H522 lung
SK-MEL-5 melanoma = tested on: SK-MEL-5 melanoma
SNB-19 CNS = tested on: SNB-19 CNS

Structure (SMILES)	GI50 (HOP-62 NSCLC)	TGI (HOP-62 NSCLC)	GI50 (HOP-92 NSCLC)	TGI (HOP-92 NSCLC)	GI50 (MCF7 breast)	TGI (MCF7 breast)	GI50 (MDA-MB-231 breast)	TGI (MDA-MB-231 breast)	GI50 (NCI-H226 lung)	TGI (NCI-H226 lung)	GI50 (NCI-H522 lung)	TGI (NCI-H522 lung)	GI50 (SK-MEL-5 melanoma)	TGI (SK-MEL-5 melanoma)	GI50 (SNB-19 CNS)	TGI (SNB-19 CNS)
Cc1nc(C(=O)OCc2ccccc2)cc(OCc2ccccc2)c1C	19.9 µM	40.7 µM	14.7 µM	30.8 µM	18.3 µM	43.2 µM	14.6 µM	34.9 µM	19.1 µM	46.9 µM	15.5 µM	37 µM	10.7 µM	26 µM	27.8 µM	> 82.8 µM
CC(C)(O)c1cc(Nc2cc(Oc3cn(C4CC4)nc3C3CCOCC3)ccn2)ccn1	> 100 µM	> 100 µM	21.3 µM	> 100 µM	35.3 µM	> 100 µM	65 µM	> 100 µM	> 100 µM	> 100 µM	52.2 µM	> 100 µM	38.7 µM	> 100 µM	> 100 µM	> 100 µM
CN(C)CCN=c1nc2c(c(N)n1-c1ccccc1)c(=S)n(-c1ccccc1)c(=S)n2-c1ccccc1	2.73 µM	10.8 µM	1.62 µM	12.6 µM	1.9 µM	7.39 µM	1.16 µM	4.05 µM	13 µM	27.6 µM	2.39 µM	6.82 µM	1.49 µM	2.93 µM	3.86 µM	16.7 µM
C[C@]12CCC3c4ccc(O)cc4CCC3C1CC[C@@H]2NC(=O)/C=C/c1ccc(O)c(O)c1 (some centres undefined)	16.1 µM	35.9 µM	5.59 µM	25.1 µM	16.1 µM	49.1 µM	14.5 µM	33.6 µM	12.3 µM	37.9 µM	6.25 µM	27.4 µM	10.5 µM	25.2 µM	13.7 µM	33.9 µM
C=C1C(=O)O[C@@H]2C[C@@H](C)[C@@H]3C=CC(=O)[C@@]3(C)[C@@H](OC(=O)CCCC(=O)O[C@H]3[C@@H]4C(=C)C(=O)O[C@@H]4C[C@@H](C)[C@@H]4C=CC(=O)[C@]43C)[C@H]12		2.61 µM		0.104 µM		0.805 µM		0.079 µM		1.35 µM		0.0253 µM		0.293 µM		2.56 µM
COc1ccc(-c2cn3ccnc3c(-c3ccc(Cl)cc3)n2)cc1	16.3 µM	> 100 µM	10.2 µM	48.4 µM	5.56 µM	> 100 µM	4.13 µM	55.9 µM	42.8 µM	> 100 µM	> 100 µM	> 100 µM	4.06 µM	21.1 µM	14.4 µM	> 100 µM
Cn1cc(-c2csc(-c3ccc(Cl)cc3)n2)c2cccnc21	17.2 µM	32.4 µM	2.54 µM	19.1 µM	11.9 µM	29.8 µM	13.3 µM	33.3 µM	14.8 µM	43.6 µM	13.6 µM	38.2 µM	13.9 µM	27.6 µM	13.8 µM	30.2 µM
COc1ccc(/C=C(\C#N)c2cc(OC)c(OC)c(OC)c2)cc1	< 0.0184 µM	> 100 µM	0.277 µM	25.1 µM	0.0272 µM	> 50.3 µM	0.0483 µM	> 100 µM	0.0252 µM	0.0706 µM	< 0.01 µM	0.0268 µM	0.0182 µM	0.0644 µM	0.0558 µM	> 100 µM
CCCC(=O)Nc1cc(/C=C/C(=O)N2C[C@@H]3C[C@]34C2=CC(=O)c2[nH]cc(C)c24)n(C)c1		25 µM	0.282 µM	1.96 µM and 0.741 µM	0.0208 µM			1.68 µM		3.76 µM	0.0287 µM	0.219 µM and 0.141 µM		0.334 µM	0.18 µM	25 µM and 11.3 µM
CSC(=S)NCc1cn(C)c2ccccc12	49.4 µM	> 100 µM	23.9 µM	> 100 µM	24.3 µM	90.9 µM	15.4 µM	44.5 µM	23.4 µM	64.8 µM	21.5 µM	86.1 µM	13.9 µM	32.8 µM	40.3 µM	> 100 µM
CCN(CC)c1ccc(/C=N/N=C(N)N)cc1	4.65 µM	21.3 µM	2.27 µM	13.5 µM	2.62 µM	14.8 µM	10.9 µM	32.6 µM	3.84 µM	22.8 µM	1.91 µM	4.8 µM	3.16 µM	13.4 µM	3.57 µM	23.8 µM
S=C(Nc1ccc(-c2nc3ccccc3s2)cc1)Nc1ccc(-c2nc3ccccc3s2)cc1	37.5 µM	> 100 µM	15.3 µM	53.6 µM	25 µM	59 µM	13.7 µM	35 µM	14 µM	38.8 µM	11.2 µM	26.2 µM	13.5 µM	26.6 µM	43 µM	> 100 µM
